Assay results taken from PMC9826768, “New polychlorinated bibenzyls from Rhododendron minutiflorum” (Natural Products and Bioprospecting, 2023).

Assays:
α-glucosidase = α-glucosidase inhibitory activity (PNPG method); type: biochemical; conditions: mean ± SE; acarbose as positive control
Experimental: In order to evaluate the insecticidal activities of all the isolated compounds, their toxicities on D. citri Kuwayama were tested.
According to the previously reported method, all the isolated compounds were screened for α-glucosidase inhibitory activity.

[1] = system: Diaphorina citri Kuwayama; test: Insecticidal activity (toxicity) against the Asian citrus psyllid; type: in vivo; conditions: for corrected mortality rate of citrus psyllid: 4th day after the test started, compound concentration higher than 50 mg/L; for LD50: against D. citri, during 6 days after treatment (calculated using observations on day 6), Probit analysis
Experimental: To avoid accidental injury, all the D. citri were carefully collected and cultured. The insecticidal activities of eight compounds were evaluated using methods described in the literature with slightly modified. […] Finally, mortality was calculated every 24 h starting on the second day of the trial.

Compound: Oc1c(Cl)cc(CCc2c(Cl)cc(Cl)c(O)c2Cl)cc1Cl [Compound 1, 2,4,6,3′,5′-pentachloro-3,4′-dihydroxybibenzyl]
- IC50 (α-glucosidase): 82.8 ± 4.99 µM

Compound: Oc1c(Cl)cc(CCc2ccc(Cl)c(O)c2Cl)cc1Cl [Compound 2, 2,4,3′,5′-tetrachloro-3,4′-dihydroxybibenzyl]
- corrected mortality rate of citrus psyllid [1]: higher than 50%
- LD50 [1]: 27.15 mg/L

Compound: Oc1cc(CCc2cc(Cl)c(O)c(Cl)c2)c(Cl)cc1Cl [Compound 3, 4,6,3′,5′-tetrachloro-3,4′-dihydroxybibenzyl]
- LD50 [1]: 48.50 mg/L
- IC50 (α-glucosidase): 60.4 ± 1.54 µM

Compound: Oc1cc(CCc2cc(Cl)c(O)c(Cl)c2)ccc1Cl [Compound 4, 4,3′,5′-trichloro-3,4′-dihydroxybibenzyl]
- IC50 (α-glucosidase): 17.9 ± 0.74 µM

Compound: COc1cc(CCc2cc(Cl)c(O)c(Cl)c2)ccc1Cl [Compound 5, 4,3′,5′-trichloro-4′-hydroxyl-3-methoxybibenzyl]
- corrected mortality rate of citrus psyllid [1]: higher than 50%
- LD50 [1]: 17.02 mg/L
- IC50 (α-glucosidase): 62.7 ± 6.87 µM

Compound: COc1cc(O)c(CCC(C)(C)O)c(CCc2ccccc2)c1 [Compound 6, 3-hydroxyl-5-methoxy-2-(3′-hydroxyl-3′-methylbutyl)-bibenzyl]
- corrected mortality rate of citrus psyllid [1]: higher than 50%
- LD50 [1]: 16.20 mg/L
- IC50 (α-glucosidase): 76 ± 12 µM

Compound: CC(C)=CCc1c(O)cc(O)cc1CCc1ccccc1 [Compound 7, 3,5-dihydroxyl-2-(3′-methyl-2′-butenyl)-bibenzyl]
- LD50 [1]: 48.64 mg/L
- IC50 (α-glucosidase): 56.7 ± 1.42 µM

Compound: CC(C)=CCc1ccc(CCc2ccc(O)cc2)cc1O [Compound 8, 3,4″-dihydroxyl-4-(3′-methyl-2′-butenyl)-bibenzyl]
- IC50 (α-glucosidase): 65.4 ± 2.04 µM

Compound: O=C1CCC[C@@H]2[C@H]3CCCN4CCC[C@@H](CN12)[C@@H]34 [Matrine, matrine, reference compound]
- LD50 [1]: 11.86 mg/L
